Source: patent US11046716B2, “Beta-lactamase inhibitors” (priority 2015, dated 2021)

Key:
SHV-5 = biological target: T1, SHV-5 (Klebsiella pneumoniae, UniProt P0A3M1); assay: β-lactamase enzyme inhibition assay, SHV-5 (cefotaxime substrate); format: biochemical
T1 construct: made in house; host or cells: E. coli BL21(DE3)
Outline: (§1)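 Native untagged enzymes expressed in E. coli BL21(DE3), purified by cation exchange and gel filtration. Inhibitor preincubated with enzyme 15 min at 37 °C; hydrolysis followed by absorbance: imipenem at 300 nm for KPC-2, cefotaxime at 260 nm for SHV-5. IC50 as concentration halving initial hydrolysis rate versus inhibitor-free wells.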

KPC-2 = biological target: T2, KPC-2 (Klebsiella pneumoniae, UniProt Q9F663); assay: β-lactamase enzyme inhibition assay, KPC-2 (imipenem substrate); format: biochemical; details: Class A; imipenem substrate, 300 nm; read-out: KPC-2
T2 construct: made in house; host or cells: E. coli BL21(DE3)
T2 sequence (Q9F663 25-293, looked up): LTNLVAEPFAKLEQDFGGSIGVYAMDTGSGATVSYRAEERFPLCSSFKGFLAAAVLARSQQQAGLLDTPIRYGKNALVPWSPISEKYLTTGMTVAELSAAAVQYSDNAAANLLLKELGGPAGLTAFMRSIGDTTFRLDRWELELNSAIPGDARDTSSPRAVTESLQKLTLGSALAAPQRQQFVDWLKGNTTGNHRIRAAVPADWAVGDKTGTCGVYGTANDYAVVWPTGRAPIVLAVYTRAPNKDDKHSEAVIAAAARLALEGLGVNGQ
Outline: as §1

VIM-2 = biological target: T3, VIM-2 (Escherichia coli, UniProt Q5U7L7); assay: β-lactamase enzyme inhibition assay, VIM-2 (nitrocefin substrate); format: biochemical; details: Class B; nitrocefin substrate, 486 nm; read-out: VIM-2
T3 construct: made in house; host or cells: E. coli BL21(DE3)
Outline: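 IC50 reflects the inhibitor concentration cutting the initial nitrocefin hydrolysis rate by half, compared with control wells lacking inhibitor. Substrate was used at 100 μM final after a 15 min, 37 °C enzyme–inhibitor preincubation.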

AmpC = biological target: T4, AmpC (Enterobacter cloacae, UniProt P05364); assay: β-lactamase enzyme inhibition assay, p99 AmpC (nitrocefin substrate); format: biochemical
T4 construct: made in house; host or cells: E. coli BL21(DE3)
T4 sequence (P05364 21-381): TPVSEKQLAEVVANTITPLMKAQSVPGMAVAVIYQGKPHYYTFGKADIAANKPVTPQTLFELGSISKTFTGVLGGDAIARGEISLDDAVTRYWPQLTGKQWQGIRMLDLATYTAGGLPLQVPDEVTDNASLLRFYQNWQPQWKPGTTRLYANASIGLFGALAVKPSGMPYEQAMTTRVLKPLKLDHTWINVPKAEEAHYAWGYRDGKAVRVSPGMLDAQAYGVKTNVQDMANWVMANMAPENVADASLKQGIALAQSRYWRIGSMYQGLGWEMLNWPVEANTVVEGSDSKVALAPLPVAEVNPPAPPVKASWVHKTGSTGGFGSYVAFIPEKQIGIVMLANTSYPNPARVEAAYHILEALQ
Outline: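 Native untagged enzymes expressed in E. coli BL21(DE3), purified by cation exchange and gel filtration. Inhibitor preincubated with enzyme 15 min at 37 °C; hydrolysis followed by absorbance. IC50 as concentration halving initial hydrolysis rate versus inhibitor-free wells.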

OXA-48 = OXA-48 (UniProt Q6XEC0); assay: β-lactamase enzyme inhibition assay, Class D oxacillinase; format: biochemical; details: read-out: OXA-48
[1] = system: E. coli expressing the Class A Extended Spectrum Beta-Lactamase (ESBL) CTX-M-15; assay: Broth microdilution MIC assay with ceftazidime, E. coli CTX-M-15; format: cell-based; details: Fixed CAZ (ceftazidime) 4 μg/mL; E. coli ESBL4 CTX-M-15
Outline: (§2)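 Potentiation format: the β-lactam was held at 4 μg/ml while the test compound was serially diluted, and growth was scored visually after overnight (16-20 h) incubation at 37° C.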

[2] = system: E. cloacae expressing the Class C P99; assay: Broth microdilution MIC assay with ceftazidime, E. cloacae P99; format: cell-based; details: Fixed CAZ (ceftazidime) 4 μg/mL; E. cl. 144200 p99 AmpC
Outline: as §2

[3] = system: K. pneumoniae expressing the Class A carbapenemase KPC-2; assay: Broth microdilution MIC assay with meropenem, K. pneumoniae KPC-2; format: cell-based; details: Fixed Mero (meropenem) 4 μg/mL; K. p. 156319 KPC-3
Outline: as §2

[4] = system: P. aeruginosa expressing the Class B carbapenemase VIM-2; assay: Broth microdilution MIC assay with meropenem, P. aeruginosa VIM-2; format: cell-based; details: Fixed Mero (meropenem) 4 μg/mL; P. aerug. 2775 VIM-2
Outline: as §2

[5] = system: K. pneumoniae expressing the class A carbapenemase KPC-2 and the class B carbapenemase VIM-4; assay: Broth microdilution MIC assay with meropenem, K. pneumoniae KPC-2 and VIM-4; format: cell-based; details: Fixed Mero (meropenem) 4 μg/mL; K. p. A-1797 KPC-2 VIM-4
Outline: as §2

[6] = system: K. pneumoniae producing the Class D carbapenemase OXA-48; assay: Broth microdilution MIC assay with meropenem, K. pneumoniae OXA-48; format: cell-based; details: Fixed Mero (meropenem) 4 μg/mL; K. p. 11978 OXA-48
Outline: as §2

T1 sequence (P0A3M1 22-286): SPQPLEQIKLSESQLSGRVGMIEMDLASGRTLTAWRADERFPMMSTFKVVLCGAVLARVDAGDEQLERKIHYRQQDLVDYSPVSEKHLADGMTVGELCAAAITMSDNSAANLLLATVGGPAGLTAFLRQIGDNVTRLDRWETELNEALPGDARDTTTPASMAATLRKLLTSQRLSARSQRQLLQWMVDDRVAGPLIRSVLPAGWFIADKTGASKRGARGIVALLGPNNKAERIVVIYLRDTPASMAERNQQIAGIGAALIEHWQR

SMILES | IC50 (SHV-5) [nM] | IC50 (KPC-2) [nM] | IC50 (VIM-2) [nM] | IC50 (AmpC) [nM] | IC50 (OXA-48) [nM] | MIC (μg/mL) of Exemplary Compounds in presence of fixed β-lactams: E. coli ESBL4 CTX-M-15 [1] | MIC (μg/mL) of Exemplary Compounds in presence of fixed β-lactams: E. cl. 144200 p99 AmpC [2] | MIC (μg/mL) of Exemplary Compounds in presence of fixed β-lactams: K. p. 156319 KPC-3 [3] | MIC (μg/mL) of Exemplary Compounds in presence of fixed β-lactams: P. aerug. 2775 VIM-2 [4] | MIC (μg/mL) of Exemplary Compounds in presence of fixed β-lactams: K. p. A-1797 KPC-2 VIM-4 [5] | MIC (μg/mL) of Exemplary Compounds in presence of fixed β-lactams: K. p. 11978 OXA-48 [6]
O=C(Cn1cnnn1)N[C@H]1Cc2cccc(C(=O)O)c2OB1O [Example 97, (R)-3-(2-(1H-tetrazol-1-yl)acetamido)-2-hydroxy-3,4-dihydro-2H-benzo[e][1,2]oxaborinine-8-carboxylic acid] | < 100 | < 100 | 100 to 1000 | < 100 | < 100 | C (C represents an MIC of <1 μg/mL) | C (C represents an MIC of <1 μg/mL) | C (C represents an MIC of <1 μg/mL) | B (B represents an MIC between 1 and 16 μg/mL inclusive) | B (B represents an MIC between 1 and 16 μg/mL inclusive) | C (C represents an MIC of <1 μg/mL)
O=C(Cc1nnnn1CC1CCNCC1)N[C@H]1Cc2cccc(C(=O)O)c2OB1O [Example 98, (R)-2-hydroxy-3-(2-(1-(piperidin-4-ylmethyl)-1H-tetrazol-5-yl)acetamido)-3,4-dihydro-2H-benzo[e][1,2]oxaborinine-8-carboxylic acid] | < 100 | < 100 | < 100 | < 100 | 100 to 1000 | C (C represents an MIC of <1 μg/mL) | C (C represents an MIC of <1 μg/mL) | C (C represents an MIC of <1 μg/mL) | C (C represents an MIC of <1 μg/mL) | B (B represents an MIC between 1 and 16 μg/mL inclusive) | B (B represents an MIC between 1 and 16 μg/mL inclusive)
O=C(Cc1nnn(CC2CCNCC2)n1)N[C@H]1Cc2cccc(C(=O)O)c2OB1O [Example 99, (R)-2-hydroxy-3-(2-(2-(piperidin-4-ylmethyl)-2H-tetrazol-5-yl)acetamido)-3,4-dihydro-2H-benzo[e][1,2]oxaborinine-8-carboxylic acid] | < 100 | < 100 | 100 to 1000 | < 100 | 100 to 1000 | C (C represents an MIC of <1 μg/mL) | C (C represents an MIC of <1 μg/mL) | C (C represents an MIC of <1 μg/mL) | C (C represents an MIC of <1 μg/mL) | B (B represents an MIC between 1 and 16 μg/mL inclusive) | B (B represents an MIC between 1 and 16 μg/mL inclusive)
O=C(Cc1nnn(C2CNC2)n1)N[C@H]1Cc2cccc(C(=O)O)c2OB1O [Example 100, (R)-3-(2-(2-(azetidin-3-yl)-2H-tetrazol-5-yl)acetamido)-2-hydroxy-3,4-dihydro-2H-benzo[e][1,2]oxaborinine-8-carboxylic acid] | < 100 | 100 to 1000 | < 100 | < 100 | < 100 | C (C represents an MIC of <1 μg/mL) | C (C represents an MIC of <1 μg/mL) | C (C represents an MIC of <1 μg/mL) | C (C represents an MIC of <1 μg/mL) | B (B represents an MIC between 1 and 16 μg/mL inclusive) | C (C represents an MIC of <1 μg/mL)
O=C(Cc1nnnn1CCF)N[C@H]1Cc2cccc(C(=O)O)c2OB1O [Example 101, (R)-3-(2-(1-(2-fluoroethyl)-1H-tetrazol-5-yl)acetamido)-2-hydroxy-3,4-dihydro-2H-benzo[e][1,2]oxaborinine-8-carboxylic acid] | < 100 | < 100 | 100 to 1000 | < 100 | < 100 | C (C represents an MIC of <1 μg/mL) | C (C represents an MIC of <1 μg/mL) | B (B represents an MIC between 1 and 16 μg/mL inclusive) | C (C represents an MIC of <1 μg/mL) | B (B represents an MIC between 1 and 16 μg/mL inclusive) | C (C represents an MIC of <1 μg/mL)
NCCc1nnnn1CC(=O)N[C@H]1Cc2cccc(C(=O)O)c2OB1O [Example 102, (R)-3-(2-(5-(2-aminoethyl)-1H-tetrazol-1-yl)acetamido)-2-hydroxy-3,4-dihydro-2H-benzo[e][1,2]oxaborinine-8-carboxylic acid] | 100 to 1000 | < 100 | < 100 | < 100 | 100 to 1000 | C (C represents an MIC of <1 μg/mL) | C (C represents an MIC of <1 μg/mL) | B (B represents an MIC between 1 and 16 μg/mL inclusive) | C (C represents an MIC of <1 μg/mL) | B (B represents an MIC between 1 and 16 μg/mL inclusive) | B (B represents an MIC between 1 and 16 μg/mL inclusive)
NCCc1nnn(CC(=O)N[C@H]2Cc3cccc(C(=O)O)c3OB2O)n1 [Example 103, (R)-3-(2-(5-(2-aminoethyl)-2H-tetrazol-2-yl)acetamido)-2-hydroxy-3,4-dihydro-2H-benzo[e][1,2]oxaborinine-8-carboxylic acid] | 100 to 1000 | < 100 | 100 to 1000 | < 100 | 100 to 1000 | C (C represents an MIC of <1 μg/mL) | C (C represents an MIC of <1 μg/mL) | C (C represents an MIC of <1 μg/mL) | C (C represents an MIC of <1 μg/mL) | B (B represents an MIC between 1 and 16 μg/mL inclusive) | B (B represents an MIC between 1 and 16 μg/mL inclusive)
N=CNCCn1nnnc1CC(=O)N[C@H]1Cc2cccc(C(=O)O)c2OB1O [Example 104, (R)-3-(2-(1-(2-formimidamidoethyl)-1H-tetrazol-5-yl)acetamido)-2-hydroxy-3,4-dihydro-2H-benzo[e][1,2]oxaborinine-8-carboxylic acid] | < 100 | < 100 | 100 to 1000 | < 100 | 100 to 1000 | C (C represents an MIC of <1 μg/mL) | C (C represents an MIC of <1 μg/mL) | C (C represents an MIC of <1 μg/mL) | C (C represents an MIC of <1 μg/mL) | C (C represents an MIC of <1 μg/mL) | C (C represents an MIC of <1 μg/mL)
